The source of these data is PubChem BioAssay (NCI).

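Protocol summary: plate cells (96-well), add compound at 5 concentrations, incubate 48 h, interpolate endpoints linearly. GI50: concentration for 50% inhibition of growth. TGI denotes the concentration required for complete inhibition of growth.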 A value given as a limit tells only on which side of the number the result lay.

One assay has as its system SK-MEL-2 melanoma. The assay is described as follows: inhibition of tumour cell growth, NCI panel, 48 h.
Consider `Cn1c(=O)c2[nH]c(CCNC(=O)c3ccccc3)nc2n(C)c1=O`, for which the TGI is over 100 µM.

`Cc1cc(S(=O)(=O)Nc2nc3ccccc3nc2-c2cccc([N+](=O)[O-])c2)c(S)cc1Cl` showed a TGI of 42.2 µM.

`O=c1ssc(=Nc2ccccc2)n1-c1ccccc1` displayed a TGI of 53.9 µM.

Regarding `NCCSS(=O)(=O)CCN`, the TGI is over 100 µM.

`CC(=O)Oc1cc2c(cc1OC(C)=O)OCC(c1ccccc1)C2` (stereo not given) registered a TGI of 54.7 µM.

`OCCNCCN1CCN(CCCN2c3ccccc3Sc3ccc(C(F)(F)F)cc32)CC1` showed a TGI of 37.5 µM.

Compound `O=C(O)c1cc2c(ncc3c(=O)n(-c4ccccc4)[nH]c32)s1` had a TGI of over 100 µM.

With `O=C(CCl)NNC1=Nc2ccc(Cl)cc2SC1`, the TGI came out at 14 µM.

In turn, `CCCc1c(-c2ccccc2)[nH]c2ccccc2c1=O` displayed a TGI of 96.7 µM.

`Cc1ccc(C2OC(COCc3ccc(Cl)cc3)C(OCc3ccc(Cl)cc3)C2O)cc1` (stereo not given) gave a TGI of 31 µM.

Consider `CO/N=C(/C)c1ccc(NC(=O)CSc2nnc(-c3ccncc3)n2-c2ccccc2)cc1`, for which the GI50 was 11.1 µM and the TGI came out at 55.1 µM.

With `C[N+](C)(C)CCc1ccccc1`, the TGI is over 100 µM.

The compound `COc1c(Br)cc2c(c1OC)C(Br)CCC(Br)(Br)C2=O` (stereo not given) had a TGI of 4.4 µM.

`O=C1C=CC2(C=C1)O[C@H](Cc1ccccc1)[C@@H](Cc1ccccc1)O2` yielded a TGI of 3.33 µM.

`CCCNC(=O)C(C)C1CCC2(C)C=CC(=O)C(C)=C2C1O` (stereo not given) returned a TGI of over 100 µM.

The compound `O=C(Nc1nc2ccc([N+](=O)[O-])cc2s1)C(=O)C(C(=O)c1ccccc1F)C1OC(=O)c2ccccc21` (stereo not given) returned a TGI of over 100 µM.

Compound `Nc1ccn(C2C=C(CO)C(O)C2O)c(=O)c1` (stereo not given) yielded a TGI of over 625 µM.

On to `COc1nc(=O)n(COC(CO)CN2C(=O)c3ccccc3C2=O)cc1Cc1cccc(OCc2ccccc2)c1` (stereo not given), for which the TGI is 31.3 µM.

The subject of a further assay is SNB-19 CNS. The assay is described as follows: inhibition of tumour cell growth, NCI panel, 48 h.
For the compound `N#C[C@H](OC1OC(COC2OC(CO)C(O)C(O)C2O)C(O)C(O)C1O)c1ccccc1` (stereo not given in full), the TGI is over 250 µM.

In turn, `CCN(CC)c1ccc2cc(C(=O)Nc3ccc4[nH]c(C(=O)N5C[C@@H](CCl)c6c5cc(OC(=O)Nc5ccccc5)c5[nH]cc(C)c65)cc4c3)oc2c1` returned a TGI of 758 µM.

The compound `Cn1c(=O)c2[nH]c(CCNC(=O)c3ccccc3)nc2n(C)c1=O` gave a TGI of over 100 µM.

Consider `Cc1cc(S(=O)(=O)Nc2nc3ccccc3nc2-c2cccc([N+](=O)[O-])c2)c(S)cc1Cl`, for which the TGI was 39.9 µM.

With `O=c1ssc(=Nc2ccccc2)n1-c1ccccc1`, the TGI is over 100 µM.

`NCCSS(=O)(=O)CCN` came in with a TGI of over 100 µM.

Compound `CC(=O)Oc1cc2c(cc1OC(C)=O)OCC(c1ccccc1)C2` (stereo not given) gave a TGI of 48.5 µM.

As to `OCCNCCN1CCN(CCCN2c3ccccc3Sc3ccc(C(F)(F)F)cc32)CC1`, the TGI amounted to 49.2 µM.

On to `O=C(CCl)NNC1=Nc2ccc(Cl)cc2SC1`, for which the TGI worked out at 26.4 µM.

`CCCc1c(-c2ccccc2)[nH]c2ccccc2c1=O`: the TGI was over 100 µM.

The compound `Cc1ccc(C2OC(COCc3ccc(Cl)cc3)C(OCc3ccc(Cl)cc3)C2O)cc1` (stereo not given) yielded a TGI of 56.7 µM.

`C[N+](C)(C)CCc1ccccc1` showed a TGI of over 100 µM.

`COc1c(Br)cc2c(c1OC)C(Br)CCC(Br)(Br)C2=O` (stereo not given) came in with a TGI of 14.1 µM.

As for `O=C1C=CC2(C=C1)O[C@H](Cc1ccccc1)[C@@H](Cc1ccccc1)O2`, the TGI was 6.47 µM.

Compound `CCCNC(=O)C(C)C1CCC2(C)C=CC(=O)C(C)=C2C1O` (stereo not given) registered a TGI of over 100 µM.

`O=C(Nc1nc2ccc([N+](=O)[O-])cc2s1)C(=O)C(C(=O)c1ccccc1F)C1OC(=O)c2ccccc21` (stereo not given): the TGI is over 100 µM.

With `Nc1ccn(C2C=C(CO)C(O)C2O)c(=O)c1` (stereo not given), the TGI was over 625 µM.

The compound `COc1nc(=O)n(COC(CO)CN2C(=O)c3ccccc3C2=O)cc1Cc1cccc(OCc2ccccc2)c1` (stereo not given) came in with a TGI of over 100 µM.

The subject of the next assay is UO-31 renal. The assay is described as follows: inhibition of tumour cell growth, NCI panel, 48 h.
The compound `N#C[C@H](OC1OC(COC2OC(CO)C(O)C(O)C2O)C(O)C(O)C1O)c1ccccc1` (stereo not given in full) had a TGI of over 250 µM.

`CCN(CC)c1ccc2cc(C(=O)Nc3ccc4[nH]c(C(=O)N5C[C@@H](CCl)c6c5cc(OC(=O)Nc5ccccc5)c5[nH]cc(C)c65)cc4c3)oc2c1` yielded a TGI of 982 µM.

For the compound `Cn1c(=O)c2[nH]c(CCNC(=O)c3ccccc3)nc2n(C)c1=O`, the TGI was over 100 µM.

Regarding `Cc1cc(S(=O)(=O)Nc2nc3ccccc3nc2-c2cccc([N+](=O)[O-])c2)c(S)cc1Cl`, the TGI came out at 46.1 µM.

`O=c1ssc(=Nc2ccccc2)n1-c1ccccc1` came in with a TGI of 31.7 µM.

On to `NCCSS(=O)(=O)CCN`, for which the TGI was over 100 µM.

With `CC(=O)Oc1cc2c(cc1OC(C)=O)OCC(c1ccccc1)C2` (stereo not given), the TGI was determined as 58.4 µM.

The compound `O=C(O)c1cc2c(ncc3c(=O)n(-c4ccccc4)[nH]c32)s1` had a TGI of over 100 µM.

In the case of `O=C(CCl)NNC1=Nc2ccc(Cl)cc2SC1`, the TGI came to 3.49 µM.

Take `CCCc1c(-c2ccccc2)[nH]c2ccccc2c1=O`: the TGI was 69.1 µM.

As to `Cc1ccc(C2OC(COCc3ccc(Cl)cc3)C(OCc3ccc(Cl)cc3)C2O)cc1` (stereo not given), the TGI worked out at 23.8 µM.

In turn, `C[N+](C)(C)CCc1ccccc1` returned a TGI of over 100 µM.

Regarding `COc1c(Br)cc2c(c1OC)C(Br)CCC(Br)(Br)C2=O` (stereo not given), the TGI is 2.89 µM.

In turn, `O=C1C=CC2(C=C1)O[C@H](Cc1ccccc1)[C@@H](Cc1ccccc1)O2` came in with a TGI of 0.69 µM.

`CCCNC(=O)C(C)C1CCC2(C)C=CC(=O)C(C)=C2C1O` (stereo not given) yielded a TGI of over 100 µM.

The compound `O=C(Nc1nc2ccc([N+](=O)[O-])cc2s1)C(=O)C(C(=O)c1ccccc1F)C1OC(=O)c2ccccc21` (stereo not given) displayed a TGI of over 100 µM.

Compound `Nc1ccn(C2C=C(CO)C(O)C2O)c(=O)c1` (stereo not given) registered a TGI of over 625 µM.

With `COc1nc(=O)n(COC(CO)CN2C(=O)c3ccccc3C2=O)cc1Cc1cccc(OCc2ccccc2)c1` (stereo not given), the TGI was 52.4 µM.
